Patent US9801955B2, “Methods and compositions for detecting drusen and predicting age-related macular degeneration” (University of Maryland, Baltimore, priority 2012, dated 2017)

Tests used:
[1] = Nile Red staining of neutral lipids in unfixed whole mounts with drusen on Bruch's membrane (FIG. 8); design: species or system human
Protocol: Flat mounts were stained with 1 mg/ml Alizarin Red S (Sigma-Aldrich; Ex: 532 nm Em:620 nm), 20 μM Bone-Tag 680RD (Li-Cor; Ex: 620 nm Em:680 nm), 1 mg/ml tetracycline (Sigma-Aldrich; Ex: 405 nm Em: 570 nm), and 1 mg/ml Xylenol Orange (Sigma-Aldrich; Ex: 532 nm Em:570 nm) in aqueous buffer for 20 minutes at room temperature. Nile Red (Invitrogen, Carsbad, Calif.; Ex: 532 nm Em: 620 nm) was first dissolved in acetone and then diluted in aqueous buffer to 3.5 mg/ml and tissues were incubated for 20 minutes at room temperature.
Without being bound by theory or mechanism, HAP may form on the surface of an existing structure at the RPE/BM interface, for example lipid droplets or lipoproteins. […] The composition of the inner core of HAP spherules was analyzed by mass spectrometric imaging (FIG. 3). […] The native chemical composition was then analysed with time-of-flight secondary ion mass spectrometry (TOF-SIMS), which is well suited, as it combines high lateral resolution (˜250 nm) and very high sensitivity in the range of parts per million, and can image molecular ions and organic molecules over a wide mass range. […] The m/e 184 ion (i.e. from the phosphocholine headgroup fragment from phospholipids) is readily detected by TOF-SIMS as a characteristic marker, so its absence from the spherules implies a strong predominance of cholesterol and/or cholesteryl esters within the spherules.

[2] = Staining of the elastin layer of the Bruch's membrane in cadaver retina; design: species or system human
[3] = Staining of insoluble zinc phosphate (Example 1); type: binding
[4] = Staining of tribasic calcium phosphate; type: binding; conditions: compared with HAP
Source text: (§1) Hydroxyapatite Bio-Gel HTP resin (Bio-Rad catalog 130-0420) (Bio-Red Laboratories, Inc., Hercules, Calif.) was used as a model for hydroxyapatite in deposits for purposes of collecting emission spectra; stained resin particles were suspended in propylene glycol for fluorescence spectroscopy. Calcium phosphate tribasic (34-40% Ca basis, cat no. C5267), Calcium hydrogen phosphate dihydrate (dibasic, 98%, cat. No. 307653) and calcium phosphate monobasic monohydrate (>85%, cat no. 21053) were all products of Sigma Aldrich and used without further purification. Fluorescence spectra were obtained on a Spectronics AB-2 spectrophotofluorometer with a high pressure xenon lamp.
(§2) The dibasic form of calcium phosphate is listed as 98% pure. […] IRDye 680RD BoneTag was also tested on HAP and drusen. This probe is a long wavelength excitable fluorophore coupled to tetracycline designed as an in vivo bone stain (J. L. Kovar et al., 2011 Anal. Biochem. 416(2):167-173).

[5] = Fluorescent staining of HAP chromatographic medium as a model for drusen; type: binding
Source text: as §1, §2

[6] = Staining of monobasic calcium phosphate; type: binding; conditions: salt slightly soluble
Source text: as §1, §2

[7] = Fluorescent staining of cadaver posterior retinas (sub-RPE deposits, drusen); design: species or system human; conditions: for increase in apparent intensity over the fluorescent background of the sub-RPE alone: cadaver posterior retinas
[8] = Fluorescent staining of zinc phosphate, specificity control (Example 2, FIG. 6); type: binding; conditions: 25 mM MOPS pH 7.5
Protocol: (§3) Briefly, the insoluble salts (100 mg in 1 ml 25 mM MOPS pH 7.5 buffer) were stained with 100 ul of 1 mg/ml dye (0.02 nmol/uL of the Bone Tag 680 RD dye) in buffer for 20 minutes at room temperature, followed by two rinses with buffer. Approximately 100 ul of the precipitate (a slurry) was suspended in propylene glycol. Fluorescence emission spectra shown in FIG. 6 were obtained at the excitation wavelengths described in the legend. […] Sub-RPE deposits can be readily identified based on their characteristic faint autofluorescence at excitation: 488 nm and emission: 525 nm).

[9] = Fluorescent staining of dibasic calcium phosphate, emission spectra (Example 2, FIG. 6); type: binding; conditions: 25 mM MOPS pH 7.5
Protocol: as §3

[10] = Fluorescent staining of authentic hydroxyapatite, emission spectra (Example 2, FIG. 6); type: binding; conditions: for fluorescence of stained hydroxyapatite: 100 mg salt in 25 mM MOPS pH 7.5, 20 minutes at room temperature, suspended in propylene glycol; for specificity for HAP in comparison to dibasic calcium phosphate or zinc phosphate: FIG. 6
Protocol: as §3

[11] = Staining of dibasic calcium phosphate (Example 1); type: binding; conditions: compared with HAP
Source text: as §1, §2

[12] = Staining of HAP spherules in sub-RPE deposits in flat mounts of cadaver tissues (FIG. 7); design: species or system human; conditions: for staining of HAP spherules in sub-RPE deposits: flat mounts of cadaver tissues; for staining pattern in retinal tissue: human cadaveric eyes, FIG. 7
Protocol: The protocol of the study adhered to the tenets of the Declaration for Helsinki regarding research involving human tissue.
as §3

SMILES	labelling of lipid inclusions in drusen [1]	staining of the elastin layer of the Bruch's membrane [2]	adherence of stain to insoluble zinc phosphate [3]	staining of tribasic calcium phosphate [4]	change in fluorescence quantum yield upon binding HAP [5]	fluorescent staining of HAP (fluorescence emission when bound) ([5]; HAP chromatographic medium, stained, rinsed in distilled water, suspended in propylene glycol)	staining of monobasic calcium phosphate [6]	contrast compared with tetracycline ([7]; cadaver posterior retina, excitation 550-600 nm, emission 650 nm)	increase in apparent intensity over the fluorescent background of the sub-RPE alone [7]	staining of zinc phosphate [8]	staining of dibasic calcium phosphate [9]	fluorescence of stained hydroxyapatite [10]	specificity for HAP in comparison to dibasic calcium phosphate or zinc phosphate [10]	staining of dibasic calcium phosphate [11]	staining of HAP spherules in sub-RPE deposits [12]	staining pattern in retinal tissue [12]
CCN(CC)c1ccc2nc3c4ccccc4c(=O)cc-3oc2c1 [Nile Red]	labelled a large number of spherical inclusions	–	–	–	–	–	–	–	–	–	–	–	–	–	–	–
O=C1c2ccccc2C(=O)c2c1cc(S(=O)(=O)O)c(O)c2O [Alizarin Red S, 9,10-dihydro-3,4-dihydroxy-9,10-dioxo-2-anthracenesulfonic acid]	–	No staining	did not appear that either stain was adhered	less well than HAP	substantial increase	bright fluorescence emission when bound to the HAP that did not rinse off despite repeated washes with buffer	no staining was evident	two-fold	fifteen-fold	did not stain significantly	did not stain significantly	only significant fluorescence from stained specimens is observed with hydroxyapatite	specific for HAP	less well than HAP	effectively stained spherules	very similar staining patterns
Cc1cc(C2(c3cc(C)c(O)c(CN(CC(=O)O)CC(=O)O)c3)OS(=O)(=O)c3ccccc32)cc(CN(CC(=O)O)CC(=O)O)c1O [Xylenol Orange]	–	–	–	–	–	–	–	–	–	did not stain significantly	did not stain significantly	only significant fluorescence from stained specimens is observed with hydroxyapatite	specific for HAP	–	effectively stained spherules	very similar staining patterns
CN(C)[C@@H]1C(O)=C(C(N)=O)C(=O)[C@@]2(O)C(O)=C3C(=O)c4c(O)cccc4[C@@](C)(O)[C@H]3C[C@@H]12.Cl [Tetracycline HCl, Tetracycline hydrochloride]	–	–	–	less well than HAP	–	–	–	–	eight-fold	–	–	–	–	less well than HAP	–	–
